In patent publication US4012576A, “Antibiotic complex Bu 2183” (priority 1975, dated 1977):
Values after ≈ are worked out from the molar mass of the structure shown. Read-outs that look alike come from different tables or passages of the source.

How the values were obtained:
in vivo = settings: for no death at doses up to: 21600 min
Experimental: The acute toxicity of Bu-2183 A and B was determined in mice by the subcutaneous and intravenous routes.

K. pneumoniae D 11 = assay: Effect of media pH on MIC, two-fold agar dilution; assay type: cell-based; settings: Klebsiella pneumoniae, D11, Table 8, Nutrient Agar
Text: (§1) Effect of media pH on the MIC of Bu-2183 A was studied by two-fold agar dilution method using Nutrient Agar Medium at pH 6.0, 7.0, 8.0 and 9.0.

Ps. aeruginosa D 15 = assay: Effect of media pH on MIC, two-fold agar dilution; assay type: cell-based; settings: Pseudomonas aeruginosa, D15, Table 8, Nutrient Agar
Text: as §1

E. coli NIHJ [1] = assay: Effect of media pH on MIC, two-fold agar dilution; assay type: cell-based; settings: Escherichia coli, Table 8, Nutrient Agar
Text: as §1

S. aureus Smith = assay: Effect of media pH on MIC, two-fold agar dilution; assay type: cell-based; settings: Staphylococcus aureus, Table 8, Nutrient Agar
Text: as §1

B. subtilis PCI 219 = assay: Effect of media pH on MIC, two-fold agar dilution; assay type: cell-based; settings: Bacillus subtilis, PCI219, Table 8, Nutrient Agar
Text: as §1

Ps. aeruginosa A9930 = assay: MIC, two-fold agar dilution on Nutrient Agar; assay type: cell-based
Experimental: (§2) The minimum inhibitory concentrations (MIC) of Bu-2183 A and B were determined against a wide variety of bacteria by the two-fold agar dilution method on Nutrient Agar plates. The inocula-replicating device of Steers et al. was used. Inoculum size was adjusted to be 10^4 dilution of overnight culture of the test organisms in Heart Infusion Broth (Difco). The results are shown in Table 6 along with those of kanamycin which was comparatively tested as a reference antibiotic.

[2] = system: K. pneumoniae Type 22-3038; assay: MIC, two-fold agar dilution on Nutrient Agar; assay type: cell-based
Experimental: as §2

S. aureus D137 = assay: MIC, two-fold agar dilution on Nutrient Agar; assay type: cell-based; settings: Staphylococcus aureus, read-out: MIC
Experimental: as §2

Ps. aeruginosa A20653 = assay: MIC, two-fold agar dilution on Nutrient Agar; assay type: cell-based; settings: Pseudomonas aeruginosa, read-out: MIC
Experimental: as §2

Ent. cloacae A21006 = assay: MIC, two-fold agar dilution on Nutrient Agar; assay type: cell-based
Experimental: as §2

E. coli NIHJ [3] = assay: MIC, two-fold agar dilution on Nutrient Agar; assay type: cell-based; settings: Escherichia coli, read-out: MIC
Experimental: as §2

Ps. aeruginosa A20896 = assay: MIC, two-fold agar dilution on Nutrient Agar; assay type: cell-based; settings: Pseudomonas aeruginosa, read-out: MIC
Experimental: as §2

E. coli NR 79/W677 = assay: MIC, two-fold agar dilution on Nutrient Agar; assay type: cell-based; settings: Escherichia coli
Experimental: as §2

S. aureus A20239 = assay: MIC, two-fold agar dilution on Nutrient Agar; assay type: cell-based; settings: Staphylococcus aureus, read-out: MIC
Experimental: as §2

E. coli A20895 = assay: MIC, two-fold agar dilution on Nutrient Agar; assay type: cell-based; settings: Escherichia coli, read-out: MIC
Experimental: as §2

E. coli A20732 = assay: MIC, two-fold agar dilution on Nutrient Agar; assay type: cell-based
Experimental: as §2

Ps. aeruginosa No. 130 = assay: MIC, two-fold agar dilution on Nutrient Agar; assay type: cell-based
Experimental: as §2

[4] = system: E. coli, K. pneumoniae, Ps. aeruginosa, S. aureus, B. subtilis; assay: Effect of media pH on MIC (overall); assay type: cell-based; settings: Nutrient Agar, pH 6.0-9.0
Text: as §1

[5] = Pseudomonas aeruginosa, A9930, Table 6, Pa-3, read-out: MIC
[6] = Klebsiella pneumoniae, TYPE223038, Table 6, Kp-8, read-out: MIC
[7] = Enterobacter cloacae, A21006, Table 6, El-12, read-out: MIC
[8] = Escherichia coli, A20732, Table 6, Ec-72, read-out: MIC
[9] = Pseudomonas aeruginosa, NO.130, Table 6, Pa-16, read-out: MIC

## CCC(=O)NC1C(CO)OC(OC(C(O)CN)C(N)C(O)CO)C(O)C1O (centres unmarked) [Bu-2183 A]
In vivo; mouse, in vivo, iv
  LD50: 2500 mg/kg
In vivo; mouse, in vivo, sc
  LD50 at 360 h: 1000 mg/kg
K. pneumoniae D 11; pH 6
  MIC: 12.5 µg/mL (≈ 31.5 µM)
K. pneumoniae D 11; pH 7
  MIC: 12.5 µg/mL (≈ 31.5 µM)
K. pneumoniae D 11; pH 8
  MIC: 12.5 µg/mL (≈ 31.5 µM)
K. pneumoniae D 11; pH 9
  MIC: 3.1 µg/mL (≈ 7.8 µM)
Ps. aeruginosa D 15; pH 6
  MIC: > 50 µg/mL
Ps. aeruginosa D 15; pH 7
  MIC: 50 µg/mL (≈ 126 µM)
Ps. aeruginosa D 15; pH 8
  MIC: 25 µg/mL (≈ 62.9 µM)
Ps. aeruginosa D 15; pH 9
  MIC: 12.5 µg/mL (≈ 31.5 µM)
E. coli NIHJ [1]; pH 6
  MIC: > 50 µg/mL
E. coli NIHJ [1]; pH 7
  MIC: 50 µg/mL (≈ 126 µM)
E. coli NIHJ [1]; pH 8
  MIC: 25 µg/mL (≈ 62.9 µM)
E. coli NIHJ [1]; pH 9
  MIC: 12.5 µg/mL (≈ 31.5 µM)
S. aureus Smith; pH 6
  MIC: > 50 µg/mL
S. aureus Smith; pH 7
  MIC: 50 µg/mL (≈ 126 µM)
S. aureus Smith; pH 8
  MIC: 50 µg/mL (≈ 126 µM)
S. aureus Smith; pH 9
  MIC: 50 µg/mL (≈ 126 µM)
B. subtilis PCI 219; pH 6
  MIC: 50 µg/mL (≈ 126 µM)
B. subtilis PCI 219; pH 7
  MIC: 6.3 µg/mL (≈ 15.9 µM)
B. subtilis PCI 219; pH 8
  MIC: 6.3 µg/mL (≈ 15.9 µM)
B. subtilis PCI 219; pH 9
  MIC: 6.3 µg/mL (≈ 15.9 µM)
Ps. aeruginosa A9930; [5]
  MIC: 12.5 µg/mL (≈ 31.5 µM)
Ps. aeruginosa A9930; Table 7, Pa-3
  MIC: 12.5 µg/mL (≈ 31.5 µM)
[2]; [6]
  MIC: 25 µg/mL (≈ 62.9 µM)
[2]; Table 7, Kp-8 (printed Type 22-3028)
  MIC: 25 µg/mL (≈ 62.9 µM)
S. aureus D137; D137, Table 6, Sa-9
  MIC: 100 µg/mL (≈ 252 µM)
S. aureus D137; D137, Table 7, Sa-9
  MIC: 50 µg/mL (≈ 126 µM)
Ps. aeruginosa A20653; A20653, Table 6, Pa-12
  MIC: 25 µg/mL (≈ 62.9 µM)
Ps. aeruginosa A20653; A20653, Table 7, Pa-12
  MIC: 50 µg/mL (≈ 126 µM)
Ent. cloacae A21006; [7]
  MIC: 25 µg/mL (≈ 62.9 µM)
Ent. cloacae A21006; Table 7, El-12
  MIC: 25 µg/mL (≈ 62.9 µM)
E. coli NIHJ [3]; Table 6, Ec-1
  MIC: 12.5 µg/mL (≈ 31.5 µM)
E. coli NIHJ [3]; Table 7, Ec-1
  MIC: 25 µg/mL (≈ 62.9 µM)
Ps. aeruginosa A20896; A20896, Table 6, Pa-24
  MIC: 25 µg/mL (≈ 62.9 µM)
Ps. aeruginosa A20896; A20896, Table 7, Pa-24
  MIC: 50 µg/mL (≈ 126 µM)
E. coli NR 79/W677; NR79/W677, Table 6, Ec-9
  MIC: 25 µg/mL (≈ 62.9 µM)
E. coli NR 79/W677; NR79/W677, Table 7, Ec-9
  MIC: 12.5 µg/mL (≈ 31.5 µM)
S. aureus A20239; A20239, Table 6, Sa-10
  MIC: 25 µg/mL (≈ 62.9 µM)
S. aureus A20239; A20239, Table 7, Sa-10
  MIC: 50 µg/mL (≈ 126 µM)
E. coli A20895; A20895, Table 6, Ec-62
  MIC: 12.5 µg/mL (≈ 31.5 µM)
E. coli A20895; A20895, Table 7, Ec-62
  MIC: 25 µg/mL (≈ 62.9 µM)
E. coli A20732; [8]
  MIC: 12.5 µg/mL (≈ 31.5 µM)
E. coli A20732; Table 7, Ec-72
  MIC: 12.5 µg/mL (≈ 31.5 µM)
Ps. aeruginosa No. 130; [9]
  MIC: 25 µg/mL (≈ 62.9 µM)
Ps. aeruginosa No. 130; Table 7, Pa-16
  MIC: 25 µg/mL (≈ 62.9 µM)
[4]
  effect of media pH on activity: increased at alkaline pH and decreased at acidic pH

## CC(=O)NC1C(CO)OC(OC(C(O)CN)C(N)C(O)CO)C(O)C1O (centres unmarked) [Bu-2183 B]
In vivo; mice, i.v. and s.c.
  acute toxicity compared with Bu-2183 A: much less toxic than Bu-2183 A
In vivo; mouse, in vivo, iv
  no death at doses up to: ≥ 2000 mg/kg
In vivo; mouse, in vivo, sc
  no death at doses up to: ≥ 2000 mg/kg
Ps. aeruginosa A9930; [5]
  MIC: 25 µg/mL (≈ 65.2 µM)
[2]; [6]
  MIC: 100 µg/mL (≈ 261 µM)
S. aureus D137; D137, Table 6, Sa-9
  MIC: > 100 µg/mL
Ps. aeruginosa A20653; A20653, Table 6, Pa-12
  MIC: 100 µg/mL (≈ 261 µM)
Ent. cloacae A21006; [7]
  MIC: 100 µg/mL (≈ 261 µM)
E. coli NIHJ [3]; Table 6, Ec-1
  MIC: 50 µg/mL (≈ 130 µM)
Ps. aeruginosa A20896; A20896, Table 6, Pa-24
  MIC: 100 µg/mL (≈ 261 µM)
E. coli NR 79/W677; NR79/W677, Table 6, Ec-9
  MIC: 100 µg/mL (≈ 261 µM)
S. aureus A20239; A20239, Table 6, Sa-10
  MIC: 100 µg/mL (≈ 261 µM)
E. coli A20895; A20895, Table 6, Ec-62
  MIC: 50 µg/mL (≈ 130 µM)
E. coli A20732; [8]
  MIC: 25 µg/mL (≈ 65.2 µM)
Ps. aeruginosa No. 130; [9]
  MIC: 100 µg/mL (≈ 261 µM)
